Results published in ChEMBL document CHEMBL4507294, “Data for DCP probe MSD-CYP11B2” (2021).

How the values were obtained:
[1] = test system: Tyrosine-protein kinase ABL1 (Homo sapiens), P00519 [E255K]; settings: Compound concentration 1000.0 nM
[2] = molecular target: Activin receptor type-2B (Homo sapiens) (UniProt Q13705); settings: Compound concentration 1000.0 nM
[3] = molecular target: 5'-AMP-activated protein kinase catalytic subunit alpha-1 (Homo sapiens) (UniProt Q13131); settings: Compound concentration 1000.0 nM
[4] = molecular target: Tyrosine-protein kinase receptor UFO (Homo sapiens) (UniProt P30530); settings: Compound concentration 1000.0 nM
[5] = molecular target: Serine/threonine-protein kinase B-raf (Homo sapiens) (UniProt P15056); settings: Compound concentration 1000.0 nM
[6] = molecular target: Tyrosine-protein kinase BTK (Homo sapiens) (UniProt Q06187); settings: Compound concentration 1000.0 nM
[7] = molecular target: Cyclin-dependent kinase 4 (Homo sapiens) (UniProt P11802); settings: Compound concentration 1000.0 nM
[8] = molecular target: Macrophage colony-stimulating factor 1 receptor (Homo sapiens) (UniProt P07333); settings: Compound concentration 1000.0 nM
[9] = molecular target: Discoidin domain-containing receptor 2 (Homo sapiens) (UniProt Q16832); settings: Compound concentration 1000.0 nM
[10] = molecular target: Serine/threonine-protein kinase MRCK gamma (Homo sapiens) (UniProt Q6DT37); settings: Compound concentration 1000.0 nM
[11] = molecular target: Dual specificity tyrosine-phosphorylation-regulated kinase 1A (Homo sapiens) (UniProt Q13627); settings: Compound concentration 1000.0 nM
[12] = molecular target: Ephrin type-B receptor 4 (Homo sapiens) (UniProt P54760); settings: Compound concentration 1000.0 nM
[13] = molecular target: Mitogen-activated protein kinase 4 (Homo sapiens) (UniProt P31152); settings: Compound concentration 1000.0 nM
Chain of Mitogen-activated protein kinase 4 (Homo sapiens) (P31152 whole entry): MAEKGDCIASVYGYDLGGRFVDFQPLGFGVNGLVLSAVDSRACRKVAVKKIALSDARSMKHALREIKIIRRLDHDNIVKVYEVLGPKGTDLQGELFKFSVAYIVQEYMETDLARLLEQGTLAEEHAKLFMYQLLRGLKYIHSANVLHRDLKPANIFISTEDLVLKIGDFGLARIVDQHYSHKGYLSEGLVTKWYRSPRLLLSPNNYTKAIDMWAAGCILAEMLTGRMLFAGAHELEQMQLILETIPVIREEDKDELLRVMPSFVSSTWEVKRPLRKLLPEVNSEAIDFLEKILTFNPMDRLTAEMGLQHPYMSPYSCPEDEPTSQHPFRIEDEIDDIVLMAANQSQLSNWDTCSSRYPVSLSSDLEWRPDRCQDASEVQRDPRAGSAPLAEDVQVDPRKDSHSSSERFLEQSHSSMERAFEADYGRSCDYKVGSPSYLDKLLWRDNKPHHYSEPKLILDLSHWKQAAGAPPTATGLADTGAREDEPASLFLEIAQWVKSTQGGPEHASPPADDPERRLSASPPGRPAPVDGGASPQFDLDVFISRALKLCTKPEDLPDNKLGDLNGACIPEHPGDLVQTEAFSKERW

[14] = test system: Fibroblast growth factor receptor 3 (Homo sapiens), P22607 [G697C]; settings: Compound concentration 1000.0 nM
[15] = test system: Receptor-type tyrosine-protein kinase FLT3 (Homo sapiens), P36888 [UNDEFINED MUTATION]; settings: Compound concentration 1000.0 nM
[16] = molecular target: G protein-coupled receptor kinase 3 (Homo sapiens) (UniProt P35626); settings: Compound concentration 1000.0 nM
Chain of G protein-coupled receptor kinase 3 (Homo sapiens) (P35626 whole entry): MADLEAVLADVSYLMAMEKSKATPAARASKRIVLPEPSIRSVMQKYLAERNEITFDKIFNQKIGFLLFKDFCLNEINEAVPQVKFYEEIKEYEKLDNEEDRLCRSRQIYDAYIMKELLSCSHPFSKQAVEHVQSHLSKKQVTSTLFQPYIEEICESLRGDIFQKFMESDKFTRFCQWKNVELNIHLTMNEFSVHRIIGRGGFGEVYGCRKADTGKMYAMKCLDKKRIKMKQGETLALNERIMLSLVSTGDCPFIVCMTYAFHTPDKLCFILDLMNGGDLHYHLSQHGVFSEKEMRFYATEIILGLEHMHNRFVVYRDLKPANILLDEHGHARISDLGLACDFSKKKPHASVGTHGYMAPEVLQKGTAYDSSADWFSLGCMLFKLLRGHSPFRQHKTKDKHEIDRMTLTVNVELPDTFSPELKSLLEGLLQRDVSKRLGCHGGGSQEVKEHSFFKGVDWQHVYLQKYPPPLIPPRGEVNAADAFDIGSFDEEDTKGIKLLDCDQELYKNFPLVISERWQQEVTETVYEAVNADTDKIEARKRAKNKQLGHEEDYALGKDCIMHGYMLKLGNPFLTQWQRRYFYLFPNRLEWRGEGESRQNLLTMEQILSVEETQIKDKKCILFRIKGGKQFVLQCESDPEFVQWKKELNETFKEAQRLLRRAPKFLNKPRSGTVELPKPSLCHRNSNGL

[17] = molecular target: Glycogen synthase kinase-3 beta (Homo sapiens) (UniProt P49841); settings: Compound concentration 1000.0 nM
[18] = molecular target: Homeodomain-interacting protein kinase 4 (Homo sapiens) (UniProt Q8NE63); settings: Compound concentration 1000.0 nM
[19] = molecular target: Inhibitor of nuclear factor kappa-B kinase subunit beta (Homo sapiens) (UniProt O14920); settings: Compound concentration 1000.0 nM
[20] = test system: Mast/stem cell growth factor receptor Kit (Homo sapiens), P10721 [D816V]; settings: Compound concentration 1000.0 nM
[21] = test system: Leucine-rich repeat serine/threonine-protein kinase 2 (Homo sapiens), Q5S007 [G2019S]; settings: Compound concentration 1000.0 nM
Chain of Leucine-rich repeat serine/threonine-protein kinase 2 (Homo sapiens), Q5S007 [G2019S] (Q5S007 whole entry G2019S): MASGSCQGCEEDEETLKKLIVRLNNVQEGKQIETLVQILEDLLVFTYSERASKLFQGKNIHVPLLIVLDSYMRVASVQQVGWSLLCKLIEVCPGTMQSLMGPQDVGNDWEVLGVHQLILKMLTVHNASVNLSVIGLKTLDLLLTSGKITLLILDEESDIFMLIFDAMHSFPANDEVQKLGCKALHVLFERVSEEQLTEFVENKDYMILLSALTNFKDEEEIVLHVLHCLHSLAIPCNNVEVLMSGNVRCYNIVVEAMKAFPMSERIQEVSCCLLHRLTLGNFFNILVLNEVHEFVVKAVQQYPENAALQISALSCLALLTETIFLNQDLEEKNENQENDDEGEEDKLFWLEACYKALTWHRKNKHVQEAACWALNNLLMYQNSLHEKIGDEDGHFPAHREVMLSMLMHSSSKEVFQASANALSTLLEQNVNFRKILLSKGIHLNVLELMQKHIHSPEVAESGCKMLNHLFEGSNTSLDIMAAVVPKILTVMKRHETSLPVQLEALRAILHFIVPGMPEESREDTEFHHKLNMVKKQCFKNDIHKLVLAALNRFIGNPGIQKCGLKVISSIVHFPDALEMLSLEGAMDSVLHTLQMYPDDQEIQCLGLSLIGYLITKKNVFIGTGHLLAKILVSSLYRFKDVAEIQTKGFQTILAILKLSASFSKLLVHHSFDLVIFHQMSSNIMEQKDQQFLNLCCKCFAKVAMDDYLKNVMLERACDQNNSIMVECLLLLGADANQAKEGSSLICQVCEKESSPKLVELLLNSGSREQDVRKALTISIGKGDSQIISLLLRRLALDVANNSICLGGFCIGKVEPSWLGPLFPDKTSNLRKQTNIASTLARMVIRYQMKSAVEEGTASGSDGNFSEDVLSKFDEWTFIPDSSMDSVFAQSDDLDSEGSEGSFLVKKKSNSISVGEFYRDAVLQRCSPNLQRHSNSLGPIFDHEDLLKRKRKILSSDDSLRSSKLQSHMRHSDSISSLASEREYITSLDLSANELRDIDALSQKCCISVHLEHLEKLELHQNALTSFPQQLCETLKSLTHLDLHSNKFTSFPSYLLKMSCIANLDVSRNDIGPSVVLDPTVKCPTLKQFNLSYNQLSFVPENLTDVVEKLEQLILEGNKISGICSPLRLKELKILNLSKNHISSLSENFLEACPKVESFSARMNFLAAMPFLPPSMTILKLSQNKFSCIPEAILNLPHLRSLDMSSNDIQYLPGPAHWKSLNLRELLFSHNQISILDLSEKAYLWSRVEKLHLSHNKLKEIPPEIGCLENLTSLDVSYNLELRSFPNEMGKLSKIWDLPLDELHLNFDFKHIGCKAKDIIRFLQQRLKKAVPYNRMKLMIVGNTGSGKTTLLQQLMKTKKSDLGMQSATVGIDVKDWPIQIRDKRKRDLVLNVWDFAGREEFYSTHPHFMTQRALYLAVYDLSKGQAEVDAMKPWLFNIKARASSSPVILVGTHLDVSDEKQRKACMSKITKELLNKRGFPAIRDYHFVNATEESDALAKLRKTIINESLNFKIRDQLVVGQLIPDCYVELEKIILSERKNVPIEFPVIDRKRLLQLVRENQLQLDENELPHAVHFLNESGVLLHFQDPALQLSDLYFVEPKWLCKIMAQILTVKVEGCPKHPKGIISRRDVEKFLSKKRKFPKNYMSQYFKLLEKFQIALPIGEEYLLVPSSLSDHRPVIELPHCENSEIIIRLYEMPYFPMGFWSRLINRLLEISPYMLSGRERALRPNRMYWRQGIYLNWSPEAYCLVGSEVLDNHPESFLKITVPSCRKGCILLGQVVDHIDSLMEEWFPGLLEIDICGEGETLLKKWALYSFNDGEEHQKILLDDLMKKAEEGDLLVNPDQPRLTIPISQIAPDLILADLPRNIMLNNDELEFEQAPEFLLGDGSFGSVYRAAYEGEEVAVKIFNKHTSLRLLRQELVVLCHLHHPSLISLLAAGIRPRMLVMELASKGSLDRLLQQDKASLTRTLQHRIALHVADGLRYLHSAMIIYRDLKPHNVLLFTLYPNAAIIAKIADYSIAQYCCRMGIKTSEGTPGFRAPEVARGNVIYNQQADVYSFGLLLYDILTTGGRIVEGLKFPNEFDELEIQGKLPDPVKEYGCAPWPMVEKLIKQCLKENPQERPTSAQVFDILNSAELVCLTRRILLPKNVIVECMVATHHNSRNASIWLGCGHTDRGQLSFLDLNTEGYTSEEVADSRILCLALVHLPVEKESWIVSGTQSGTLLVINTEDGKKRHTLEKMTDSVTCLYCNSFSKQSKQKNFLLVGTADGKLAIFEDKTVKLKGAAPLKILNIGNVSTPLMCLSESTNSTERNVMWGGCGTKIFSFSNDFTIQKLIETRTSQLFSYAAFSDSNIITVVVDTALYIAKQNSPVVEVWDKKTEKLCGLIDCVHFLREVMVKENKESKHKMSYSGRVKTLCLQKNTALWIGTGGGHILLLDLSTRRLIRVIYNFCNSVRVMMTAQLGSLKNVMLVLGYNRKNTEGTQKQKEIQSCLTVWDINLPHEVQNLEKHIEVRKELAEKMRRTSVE

[22] = molecular target: Mitogen-activated protein kinase kinase kinase 3 (Homo sapiens) (UniProt Q99759); settings: Compound concentration 1000.0 nM
[23] = molecular target: Dual specificity mitogen-activated protein kinase kinase 5 (Homo sapiens) (UniProt Q13163); settings: Compound concentration 1000.0 nM
[24] = molecular target: Misshapen-like kinase 1 (Homo sapiens) (UniProt Q8N4C8); settings: Compound concentration 1000.0 nM
[25] = molecular target: Myosin light chain kinase (Homo sapiens) (UniProt Q32MK0); settings: Compound concentration 1000.0 nM
[26] = molecular target: Macrophage-stimulating protein receptor (Homo sapiens) (UniProt Q04912); settings: Compound concentration 1000.0 nM
[27] = molecular target: Serine/threonine-protein kinase 38-like (Homo sapiens) (UniProt Q9Y2H1); settings: Compound concentration 1000.0 nM
[28] = molecular target: Serine/threonine-protein kinase NLK (Homo sapiens) (UniProt Q9UBE8); settings: Compound concentration 1000.0 nM
[29] = molecular target: Platelet-derived growth factor receptor alpha (Homo sapiens) (UniProt P16234); settings: Compound concentration 1000.0 nM
[30] = molecular target: Cyclin-dependent kinase 2 homolog (Plasmodium falciparum (isolate 3D7)) (UniProt P61075); settings: Compound concentration 1000.0 nM
[31] = test system: Phosphatidylinositol 4,5-bisphosphate 3-kinase catalytic subunit alpha isoform (Homo sapiens), P42336 [Q546K]; settings: Compound concentration 1000.0 nM
[32] = molecular target: Phosphatidylinositol 4-phosphate 5-kinase type-1 gamma (Homo sapiens) (UniProt O60331); settings: Compound concentration 1000.0 nM
[33] = molecular target: Membrane-associated tyrosine- and threonine-specific cdc2-inhibitory kinase (Homo sapiens) (UniProt Q99640); settings: Compound concentration 1000.0 nM
Chain of Membrane-associated tyrosine- and threonine-specific cdc2-inhibitory kinase (Homo sapiens) (Q99640 whole entry): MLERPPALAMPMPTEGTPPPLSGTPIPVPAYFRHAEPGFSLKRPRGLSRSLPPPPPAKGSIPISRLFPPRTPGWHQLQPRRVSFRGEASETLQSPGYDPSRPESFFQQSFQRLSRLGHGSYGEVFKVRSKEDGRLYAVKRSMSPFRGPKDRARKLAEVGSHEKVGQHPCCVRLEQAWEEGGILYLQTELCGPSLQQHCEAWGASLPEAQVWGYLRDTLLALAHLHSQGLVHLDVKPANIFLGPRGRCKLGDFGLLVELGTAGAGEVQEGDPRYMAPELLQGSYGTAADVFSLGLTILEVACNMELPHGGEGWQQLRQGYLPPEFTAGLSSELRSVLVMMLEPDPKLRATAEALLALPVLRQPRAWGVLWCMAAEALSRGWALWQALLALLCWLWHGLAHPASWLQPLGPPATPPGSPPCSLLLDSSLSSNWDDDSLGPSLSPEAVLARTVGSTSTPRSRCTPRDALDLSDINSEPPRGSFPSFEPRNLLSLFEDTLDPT

[34] = molecular target: Serine/threonine-protein kinase PLK1 (Homo sapiens) (UniProt P53350); settings: Compound concentration 1000.0 nM
[35] = molecular target: Protein kinase C iota type (Homo sapiens) (UniProt P41743); settings: Compound concentration 1000.0 nM
[36] = molecular target: Serine/threonine-protein kinase RIO1 (Homo sapiens) (UniProt Q9BRS2); settings: Compound concentration 1000.0 nM
[37] = molecular target: SRSF protein kinase 1 (Homo sapiens) (UniProt Q96SB4); settings: Compound concentration 1000.0 nM
[38] = molecular target: Serine/threonine-protein kinase 16 (Homo sapiens) (UniProt O75716); settings: Compound concentration 1000.0 nM
[39] = molecular target: Serine/threonine-protein kinase tousled-like 1 (Homo sapiens) (UniProt Q9UKI8); settings: Compound concentration 1000.0 nM
[40] = molecular target: BDNF/NT-3 growth factors receptor (Homo sapiens) (UniProt Q16620); settings: Compound concentration 1000.0 nM
[41] = molecular target: Serine/threonine-protein kinase WNK1 (Homo sapiens) (UniProt Q9H4A3); settings: Compound concentration 1000.0 nM
[42] = molecular target: Serine/threonine-protein kinase WNK2 (Homo sapiens) (UniProt Q9Y3S1); settings: Compound concentration 1000.0 nM
[43] = molecular target: Tyrosine-protein kinase ZAP-70 (Homo sapiens) (UniProt P43403); settings: Compound concentration 1000.0 nM
Chain of Tyrosine-protein kinase ZAP-70 (Homo sapiens) (P43403 whole entry): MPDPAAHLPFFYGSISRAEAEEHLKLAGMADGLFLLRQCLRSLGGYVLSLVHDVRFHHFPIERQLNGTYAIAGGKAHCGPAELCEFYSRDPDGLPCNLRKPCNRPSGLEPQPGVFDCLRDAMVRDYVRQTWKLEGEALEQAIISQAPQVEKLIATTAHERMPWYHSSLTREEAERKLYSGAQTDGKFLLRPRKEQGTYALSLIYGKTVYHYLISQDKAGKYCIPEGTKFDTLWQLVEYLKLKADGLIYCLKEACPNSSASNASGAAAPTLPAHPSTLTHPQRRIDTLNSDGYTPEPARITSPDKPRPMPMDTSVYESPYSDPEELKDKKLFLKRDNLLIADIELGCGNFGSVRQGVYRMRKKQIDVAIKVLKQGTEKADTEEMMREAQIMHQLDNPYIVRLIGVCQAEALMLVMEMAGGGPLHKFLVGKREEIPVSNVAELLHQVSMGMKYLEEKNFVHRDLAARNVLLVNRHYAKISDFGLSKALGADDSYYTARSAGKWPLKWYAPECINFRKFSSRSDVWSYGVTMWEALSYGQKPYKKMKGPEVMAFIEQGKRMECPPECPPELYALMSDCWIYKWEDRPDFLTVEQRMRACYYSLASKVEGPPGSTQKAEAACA

[44] = molecular target: Alpha-1B adrenergic receptor (Homo sapiens) (UniProt P35368); settings: Compound concentration 10.0 uM
[45] = molecular target: Alpha-2C adrenergic receptor (Homo sapiens) (UniProt P18825); settings: Compound concentration 10.0 uM

FC(F)(F)c1ccc2c(c1)nc(-c1cccnc1)n2C1CC1 [MSD-CYP11B2-Negative-control]
inactive: residual activity [1] 100% | residual activity [2] 100% | residual activity [3] 100% | residual activity [4] 100% | residual activity [5] 100% | residual activity [6] 93% | residual activity [7] 100% | residual activity [8] 89% | residual activity [9] 100% | residual activity [10] 100% | residual activity [11] 100% | residual activity [12] 100% | residual activity [13] 100% | residual activity [14] 100% | residual activity [15] 92% | residual activity [16] 76% | residual activity [17] 100% | residual activity [18] 100% | residual activity [19] 100% | residual activity [20] 100% | residual activity [21] 100% | residual activity [22] 100% | residual activity [23] 96% | residual activity [24] 100% | residual activity [25] 100% | residual activity [26] 100% | residual activity [27] 100% | residual activity [28] 100% | residual activity [29] 100% | residual activity [30] 100% | residual activity [31] 99% | residual activity [32] 85% | residual activity [33] 100% | residual activity [34] 96% | residual activity [35] 83% | residual activity [36] 100% | residual activity [37] 80% | residual activity [38] 100% | residual activity [39] 100% | residual activity [40] 100% | residual activity [41] 100% | residual activity [42] 100% | residual activity [43] 100% | inhibition [44] 11.7% | inhibition [45] 13.3%

CC(C)(O)c1cncc(-c2nc3ccc(F)cc3n2C2CC2)c1 [MSD-CYP11B2]
inactive: residual activity [1] 100% | residual activity [2] 85% | residual activity [3] 100% | residual activity [4] 100% | residual activity [5] 100% | residual activity [6] 83% | residual activity [7] 100% | residual activity [8] 100% | residual activity [9] 100% | residual activity [10] 100% | residual activity [12] 100% | residual activity [13] 100% | residual activity [14] 100% | residual activity [15] 83% | residual activity [16] 79% | residual activity [17] 100% | residual activity [18] 100% | residual activity [19] 100% | residual activity [20] 100% | residual activity [21] 100% | residual activity [22] 99% | residual activity [23] 100% | residual activity [24] 100% | residual activity [25] 87% | residual activity [26] 100% | residual activity [27] 100% | residual activity [28] 100% | residual activity [29] 100% | residual activity [30] 100% | residual activity [31] 78% | residual activity [32] 100% | residual activity [33] 100% | residual activity [34] 100% | residual activity [35] 89% | residual activity [36] 100% | residual activity [37] 100% | residual activity [38] 100% | residual activity [39] 100% | residual activity [40] 100% | residual activity [41] 100% | residual activity [42] 100% | residual activity [43] 100% | inhibition [44] 23.8%
active: residual activity [11] 48% | inhibition [45] 70.1%
